{"source": "paper PMC3509768", "about": "(Journal of medicinal chemistry, 2012)", "type_in_all_cases": "biochemical", "key": {"PfMIF [1]": {"target": "T1, PfMIF (Plasmodium falciparum, UniProt Q8I5C5)", "assay": "biochemical", "details": "for PfMIF tautomerase inhibitory activity (active / inactive): result in words"}, "PfMIF [2]": {"target": "T1, PfMIF", "assay": "Michaelis-Menten kinetics of 4-HPP tautomerization by PfMIF"}, "huMIF": {"target": "T2, huMIF (Homo sapiens, UniProt P14174)", "T2 sequence (P14174 2-115 limits assumed)": "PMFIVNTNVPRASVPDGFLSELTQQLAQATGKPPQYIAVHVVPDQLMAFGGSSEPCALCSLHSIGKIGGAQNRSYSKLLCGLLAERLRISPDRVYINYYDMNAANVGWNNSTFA", "assay": "Michaelis-Menten kinetics of 4-HPP tautomerization by huMIF"}}}
{"smiles": "COc1ccc(-c2cc(Oc3cc(C)cc(OC)c3)cc(C)n2)cc1", "note": "[Compound 26k]", "values": [{"measurement": "Ki", "setting": "PfMIF [1]", "value": "~40", "unit": "nM"}]}
{"smiles": "O=C(O)C(=O)Cc1ccc(O)cc1", "note": "[Compound 4-HPP, 4-hydroxyphenylpyruvate]", "values": [{"measurement": "Km", "setting": "PfMIF [2]; enolization", "value": "675 ± 46.9", "unit": "µM"}, {"measurement": "kcat", "setting": "PfMIF [2]; enolization", "value": "17.98 ± 0.7", "unit": "s⁻¹"}, {"measurement": "Km", "setting": "PfMIF [2]; ketonization", "value": "187 ± 50.6", "unit": "µM"}, {"measurement": "kcat", "setting": "PfMIF [2]; ketonization", "value": "32.90 ± 5.3", "unit": "s⁻¹"}, {"measurement": "Km", "setting": "huMIF; enolization", "value": "1140 ± 216", "unit": "µM"}, {"measurement": "kcat", "setting": "huMIF; enolization", "value": "208.3 ± 19.3", "unit": "s⁻¹"}, {"measurement": "Km", "setting": "huMIF; ketonization", "value": "192 ± 47", "unit": "µM"}, {"measurement": "kcat", "setting": "huMIF; ketonization", "value": "86.62 ± 11.7", "unit": "s⁻¹"}]}
{"smiles": "N#Cc1cccc(Oc2ccc(-c3cccc(O)c3)nc2)c1", "note": "[Compound 24j]", "values": [{"measurement": "times more potent than the 3-hydroxyl analogue 24d", "setting": "PfMIF [1]; ratio of PfMIF Ki values", "value": "roughly 20"}]}
{"smiles": "Cc1cc(Oc2cccc(O)c2)nc(-c2ccccc2)n1", "note": "[Compound 20]", "values": [{"measurement": "times less potent than 25h", "setting": "PfMIF [1]; ratio of PfMIF Ki values", "value": "more than 400"}, {"measurement": "PfMIF tautomerase inhibitory activity (active / inactive)", "setting": "PfMIF [1]", "value": "active"}]}
{"smiles": "COc1cccc(Oc2cc(C)nc(N3CCOCC3)c2)c1", "note": "[Compound 25h]", "values": [{"measurement": "Ki", "setting": "PfMIF [1]", "value": "~40", "unit": "nM"}]}
{"smiles": "COc1cccc(Oc2ccnc(N3CCOCC3)c2)c1", "note": "[Compound 23]", "values": [{"measurement": "PfMIF tautomerase inhibitory activity (active / inactive)", "setting": "PfMIF [1]", "value": "active"}]}
{"smiles": "Oc1ccc(-c2ccc(Oc3cccc(O)c3)cn2)cc1", "note": "[Compound 24e]", "values": [{"measurement": "PfMIF tautomerase inhibitory activity (active / inactive)", "setting": "PfMIF [1]", "value": "active"}]}
{"smiles": "COc1cc(C)cc(Oc2cc(C)nc(N3CCOCC3)c2)c1", "note": "[Compound 25f]", "values": [{"measurement": "Ki", "setting": "PfMIF [1]", "value": 1000, "unit": "nM"}]}
{"smiles": "Oc1cccc(Oc2ccc(-c3cccc(O)c3)nc2)c1", "note": "[Compound 24d]", "values": [{"measurement": "PfMIF tautomerase inhibitory activity (active / inactive)", "setting": "PfMIF [1]", "value": "active"}]}
